One test deals with T1, Gal4-RORγ-LBD (Homo sapiens, UniProt P51449).
T1 construct: expressed in transfected cells; host or cells: HEK-293 cells (pcDNA3.1neo plasmid)
T1 sequence (P51449 269-508 limits assumed): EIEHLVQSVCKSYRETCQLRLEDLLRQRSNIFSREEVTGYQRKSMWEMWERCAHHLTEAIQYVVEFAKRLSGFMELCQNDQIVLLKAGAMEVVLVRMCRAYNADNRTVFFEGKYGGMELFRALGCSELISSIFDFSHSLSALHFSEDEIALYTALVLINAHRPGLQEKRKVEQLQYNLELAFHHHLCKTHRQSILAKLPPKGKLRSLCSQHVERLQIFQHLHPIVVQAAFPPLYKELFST
Nature of the test: Gal4-RORγ Luciferase Reporter Assay in HEK-293T Cells. The test is classed as cell-based. The following applies: HEK-293 cells. The method, boiled down: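 Luminescence read-out (One-Glo, 10 min RT) after overnight compound exposure at 37 °C in HEK-293 cells carrying Gal4-RORγ-LBD plus a Gal4-luciferase reporter, in the presence of 2 μM ursolic acid. Max Response is the upper plateau from a 4-parameter logistic fit, normalized to untreated signal = 100.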
(In a reporter assay the amount or activity of a reporter protein is the signal.)

The next test deals with T2, RORγ-LBD (Homo sapiens, UniProt P51449).
T2 construct: made in house; host or cells: SF9 cells (baculovirus)
T2 sequence (P51449 269-508 limits assumed): T1 sequence (P51449 269-508 limits assumed)
Put plainly: RORγ-Ligand Binding Domain (LBD) TR-FRET Assay.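 As to TR-FRET Assay Max Response: 665/615 nm ratio relative to signal without ursolic acid or compound set at 100.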 The test is classed as biochemical. The method, boiled down:
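TR-FRET read-out using a biotin-tagged SRC1 coactivator LXXLL peptide (200 nM final), with the antagonist ursolic acid present at 2 μM final. Receptor is His-tagged LBD expressed in SF9 cells, ~3 nM final in pH 7.0 Tris/KCl/EDTA/DTT/BSA buffer; compounds in 1% DMSO final.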
(In general: Time-resolved FRET reads energy transfer from a long-lived donor to a nearby acceptor.)

[1] abbreviates: luciferase reporter, with 2 μM ursolic acid.

The values that follow come from US10611740B2, “Aryl dihydro-2H-benzo[b][1,4]oxazine sulfonamide and related compounds for use as agonists of RORγ and the treatment of disease” (Lycera Corporation, priority 2015, dated 2020).

For the compound `O=C(O)C1(C[C@H]2CN(S(=O)(=O)c3cccc(C(F)(F)F)c3)c3cc(-c4cc(F)cc(F)c4)ccc3O2)CCC1` [Compound 32BD, (S)-1-((6-(3,5-difluorophenyl)-4-((3-(trifluoromethyl)phenyl)-sulfonyl)-3,4-dihydro-2H-benzo[b][1,4]oxazin-2-yl)methyl)cyclobutane-1-carboxylic acid], at Gal4-RORγ-LBD (2 μM ursolic acid), the EC50 – broadly, the midpoint of the concentration-response curve – is under 500 nM and the “Gal4-RORγ Assay Max Response” value is recorded as “** (The symbol “**” indicates a value in the range of greater than 90 to 150)”. On RORγ-LBD, the EC50 is under 500 nM and the “TR-FRET Assay Max Response” value is on record as “** (The symbol “**” indicates a value in the range of greater than 90 to 150)”.

Turning to `C[C@H](CC(=O)O)[C@H]1CN(S(=O)(=O)c2cccc(C(F)(F)F)c2)c2cc(-c3cc(F)cc(F)c3Cl)ccc2O1` [Compound 80B, (R)-3-((S)-6-(2-chloro-3,5-difluorophenyl)-4-((3-(trifluoromethyl)phenyl)sulfonyl)-3,4-dihydro-2H-benzo[b][1,4]-oxazin-2-yl)butanoic acid], at Gal4-RORγ-LBD (2 μM ursolic acid), the EC50 fell in the range of 500 to 5000 nM and the “Gal4-RORγ Assay Max Response” value was “** (The symbol “**” indicates a value in the range of greater than 90 to 150)”. At RORγ-LBD, the EC50 was under 500 nM and the “TR-FRET Assay Max Response” value is “** (The symbol “**” indicates a value in the range of greater than 90 to 150)”.

Take `O=S(=O)(c1cccc(C(F)(F)F)c1)N1C[C@H]([C@H](O)CO)Oc2ccc(-c3cc(F)ccc3F)cc21` [Compound 41, (R)-1-((R)-6-(2,5-difluorophenyl)-4-((3-(trifluoromethyl)phenyl)sulfonyl)-3,4-dihydro-2H-benzo[b][1,4]oxazin-2-yl)ethane-1,2-diol]: at Gal4-RORγ-LBD (setting [1]), the EC50 is under 500 nM and the “Gal4-RORγ Assay Max Response” value is “* (The symbol “*” indicates a value in the range of 25 to 90)”. For the same compound, on RORγ-LBD, the EC50 is under 500 nM and the “TR-FRET Assay Max Response” value was “**** (The symbol “****” indicates a value greater than 200)”.

Turning to `O=C(O)CC[C@H]1CN(S(=O)(=O)c2cccc(C(F)(F)F)c2)c2cc(-c3cccc(Cl)n3)ccc2O1` [Compound 4I, (S)-3-(6-(6-chloropyridin-2-yl)-4-((3-(trifluoromethyl)phenyl)-sulfonyl)-3,4-dihydro-2H-benzo[b][1,4]oxazin-2-yl)propanoic acid], at Gal4-RORγ-LBD (setting [1]), the concentration for a half-maximal effect (EC50) is under 500 nM and the “Gal4-RORγ Assay Max Response” value is on record as “** (The symbol “**” indicates a value in the range of greater than 90 to 150)”. On RORγ-LBD, the EC50 is under 500 nM and the “TR-FRET Assay Max Response” value was “*** (The symbol “***” indicates a value in the range of greater than 150 to 200)”.

In the case of `COc1ccc(Cl)cc1-c1ccc2c(c1)N(S(=O)(=O)c1cccc(C(F)(F)F)c1)C[C@H](CCC(=O)O)O2` [Compound 2S, (S)-3-(6-(5-chloro-2-methoxyphenyl)-4-((3-(trifluoromethyl)phenyl)-sulfonyl)-3,4-dihydro-2H-benzo[b][1,4]oxazin-2-yl)propanoic acid], at Gal4-RORγ-LBD (setting [1]), the EC50 was under 500 nM and the “Gal4-RORγ Assay Max Response” value is reported as “** (The symbol “**” indicates a value in the range of greater than 90 to 150)”. Further, on RORγ-LBD, the EC50 was under 500 nM and the “TR-FRET Assay Max Response” value is recorded as “**** (The symbol “****” indicates a value greater than 200)”.

On to `CCn1cc(S(=O)(=O)N2C[C@H](CCC(=O)O)Oc3ccc(-c4cccc(Cl)c4)cc32)c(Cl)n1` [Compound 6C, (S)-3-(4-((3-chloro-1-ethyl-1H-pyrazol-4-yl)sulfonyl)-6-(3-chlorophenyl)-3,4-dihydro-2H-benzo[b][1,4]oxazin-2-yl)propanoic acid], for which, on Gal4-RORγ-LBD (setting [1]), the EC50 was 500 to 5000 nM and the “Gal4-RORγ Assay Max Response” value is “** (The symbol “**” indicates a value in the range of greater than 90 to 150)”. Besides, at RORγ-LBD, the EC50 is under 500 nM and the “TR-FRET Assay Max Response” value is “**** (The symbol “****” indicates a value greater than 200)”.

As to `CC(=O)N[C@H]1C[C@H](C[C@H]2CN(S(=O)(=O)c3cccc(C(F)(F)F)c3)c3cc(-c4cc(F)cc(OC(F)F)c4)ccc3O2)C1` [Compound 60D, N-((1S,3r)-3-(((S)-6-(3-(difluoro-methoxy)-5-fluoro-phenyl)-4-((3-(trifluoro-methyl)-phenyl)sulfonyl)-3,4-dihydro-2H-benzo[b][1,4]-oxazin-2-yl)methyl)cyclo-butyl)-acetamide], at Gal4-RORγ-LBD (2 μM ursolic acid), the EC50 is under 500 nM and the “Gal4-RORγ Assay Max Response” value is “* (The symbol “*” indicates a value in the range of 25 to 90)”. Also, on RORγ-LBD, the EC50 is under 500 nM and the “TR-FRET Assay Max Response” value is given as “*** (The symbol “***” indicates a value in the range of greater than 150 to 200)”.

Take `CC(=O)N[C@H](C)C(=O)NC[C@H]1CN(S(=O)(=O)c2cccc(C(F)(F)F)c2)c2cc(-c3cc(F)ccc3F)ccc2O1` [Compound 30AT, (R)-2-acetamido-N-(((S)-6-(2,5-difluorophenyl)-4-((3-(trifluoro-methyl)phenyl)sulfonyl)-3,4-dihydro-2H-benzo[b][1,4]-oxazin-2-yl)methyl)propanamide]: at Gal4-RORγ-LBD (setting [1]), the EC50 was 500 to 5000 nM and the “Gal4-RORγ Assay Max Response” value is given as “** (The symbol “**” indicates a value in the range of greater than 90 to 150)”. Also, at RORγ-LBD, the EC50 is under 500 nM and the “TR-FRET Assay Max Response” value is reported as “*** (The symbol “***” indicates a value in the range of greater than 150 to 200)”.

With `O=C(O)CC[C@H]1CN(S(=O)(=O)c2cccc(C(F)(F)F)c2)c2cc(-c3cccnc3Cl)ccc2O1` [Compound 2BE, (S)-3-(6-(2-chloropyridin-3-yl)-4-((3-(trifluoromethyl)phenyl)-sulfonyl)-3,4-dihydro-2H-benzo[b][1,4]oxazin-2-yl)propanoic acid], on Gal4-RORγ-LBD (setting [1]), the EC50 is 500 to 5000 nM and the “Gal4-RORγ Assay Max Response” value is recorded as “** (The symbol “**” indicates a value in the range of greater than 90 to 150)”. In addition, on RORγ-LBD, the EC50 is under 500 nM and the “TR-FRET Assay Max Response” value is given as “**** (The symbol “****” indicates a value greater than 200)”.

Consider `CC(C)(C[C@H]1CN(S(=O)(=O)c2cccc(C(F)(F)F)c2)c2cc(-c3cccc(C(F)(F)F)c3)ccc2O1)C(=O)O` [Compound 32O, (S)-2,2-dimethyl-3-(6-(3-(trifluoromethyl)phenyl)-4-((3-(trifluoromethyl)phenyl)sulfonyl)-3,4-dihydro-2H-benzo[b][1,4]oxazin-2-yl)propanoic acid], for which, on Gal4-RORγ-LBD (setting [1]), the EC50 is under 500 nM and the “Gal4-RORγ Assay Max Response” value was “* (The symbol “*” indicates a value in the range of 25 to 90)”. On RORγ-LBD, the EC50 was under 500 nM and the “TR-FRET Assay Max Response” value was “**** (The symbol “****” indicates a value greater than 200)”.

With `O=C(O)CC[C@H]1CN(S(=O)(=O)c2cccc(C(F)(F)F)c2)c2cc(-c3cc(C(F)(F)F)ccc3F)ccc2O1` [Compound 2O, (S)-3-(6-(2-fluoro-5-(trifluoromethyl)phenyl)-4-((3-(trifluoromethyl)phenyl)-sulfonyl)-3,4-dihydro-2H-benzo[b][1,4]oxazin-2-yl)propanoic acid], on Gal4-RORγ-LBD (setting [1]), the EC50 was under 500 nM and the “Gal4-RORγ Assay Max Response” value is “*** (The symbol “***” indicates a value in the range of greater than 150 to 200)”. In addition, on RORγ-LBD, the EC50 was under 500 nM and the “TR-FRET Assay Max Response” value is “*** (The symbol “***” indicates a value in the range of greater than 150 to 200)”.

On to `COc1cccc(-c2ccc3c(c2)N(S(=O)(=O)c2cccc(C(F)(F)F)c2)C[C@H](CCCC(=O)O)O3)c1` [Compound 21B, (S)-4-(6-(3-methoxyphenyl)-4-((3-(trifluoromethyl)phenyl)sulfonyl)-3,4-dihydro-2H-benzo[b][1,4]-oxazin-2-yl)butanoic acid], for which, on Gal4-RORγ-LBD (setting [1]), the EC50 was under 500 nM and the “Gal4-RORγ Assay Max Response” value is “** (The symbol “**” indicates a value in the range of greater than 90 to 150)”. Moreover, at RORγ-LBD, the EC50 was under 500 nM and the “TR-FRET Assay Max Response” value is reported as “**** (The symbol “****” indicates a value greater than 200)”.

In the case of `COc1cc(F)cc(-c2ccc3c(c2)N(S(=O)(=O)c2cccc(C(F)(F)F)c2)C[C@H](CCc2n[nH]c(=O)o2)O3)c1F` [Compound 28G, (S)-5-(2-(6-(2,5-difluoro-3-methoxyphenyl)-4-((3-(trifluoromethyl)phenyl)sulfonyl)-3,4-dihydro-2H-benzo[b][1,4]-oxazin-2-yl)ethyl)-1,3,4-oxadiazol-2(3H)-one], on Gal4-RORγ-LBD (setting [1]), the EC50 is under 500 nM and the “Gal4-RORγ Assay Max Response” value is “** (The symbol “**” indicates a value in the range of greater than 90 to 150)”. At RORγ-LBD, the EC50 was under 500 nM and the “TR-FRET Assay Max Response” value was “**** (The symbol “****” indicates a value greater than 200)”.

Consider `CC(C)(C[C@H]1CN(S(=O)(=O)c2cccc(C(F)(F)F)c2)c2cc(-c3cccc(OC(F)(F)F)c3)ccc2O1)C(=O)O` [Compound 32F, (S)-2,2-dimethyl-3-(6-(3-(trifluoromethoxy)phenyl)-4-((3-(trifluoromethyl)phenyl)sulfonyl)-3,4-dihydro-2H-benzo[b][1,4]oxazin-2-yl)propanoic acid], for which, on Gal4-RORγ-LBD (setting [1]), the EC50 was under 500 nM and the “Gal4-RORγ Assay Max Response” value is listed as “** (The symbol “**” indicates a value in the range of greater than 90 to 150)”. On RORγ-LBD, the EC50 was under 500 nM and the “TR-FRET Assay Max Response” value is recorded as “**** (The symbol “****” indicates a value greater than 200)”.
